Where two headings read alike, the source gives them in different places.
What was measured:
[1] = biological target: Beta Secretase enzyme (BACE) (Homo sapiens, UniProt P56817); assay: In vitro enzymatic BACE FRET (fluorescence resonance energy transfer) assay; format: biochemical
Summary of the method: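 Acetate buffer (0.05 M, pH 4.2), 10% DMSO final, 100 uM nonionic detergent genapol. Substrate addition (50 nM FRET peptide) initiates; one-hour incubation; Tris raises pH to neutrality before fluorescence measurement.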

[2] = test system: Aβ40 in conditioned medium of cells stably expressing Amyloid Precursor Protein (APP); assay: In vitro BACE cell-based assay (Aβ40 in conditioned medium, sandwich ELISA)
Summary of the method: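 Step two: 10-point compound titration added, starting 100 μM or 10 μM, 0.1% DMSO. Step three: medium Aβ40 measured by ELISA, capture 3 h and detection 2 h at 4° C, TRF read.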

[3] = average IC50, enzyme assay, read-out: BACE 1 FRET assay
[4] = Homo sapiens, HEK293, average IC50, HEK cells, read-out: HEK cell assay
[5] = Homo sapiens, HEK293, average IC50, read-out: HEK cell assay

Chain of Beta Secretase enzyme (BACE) (P56817 46-501, species assumed): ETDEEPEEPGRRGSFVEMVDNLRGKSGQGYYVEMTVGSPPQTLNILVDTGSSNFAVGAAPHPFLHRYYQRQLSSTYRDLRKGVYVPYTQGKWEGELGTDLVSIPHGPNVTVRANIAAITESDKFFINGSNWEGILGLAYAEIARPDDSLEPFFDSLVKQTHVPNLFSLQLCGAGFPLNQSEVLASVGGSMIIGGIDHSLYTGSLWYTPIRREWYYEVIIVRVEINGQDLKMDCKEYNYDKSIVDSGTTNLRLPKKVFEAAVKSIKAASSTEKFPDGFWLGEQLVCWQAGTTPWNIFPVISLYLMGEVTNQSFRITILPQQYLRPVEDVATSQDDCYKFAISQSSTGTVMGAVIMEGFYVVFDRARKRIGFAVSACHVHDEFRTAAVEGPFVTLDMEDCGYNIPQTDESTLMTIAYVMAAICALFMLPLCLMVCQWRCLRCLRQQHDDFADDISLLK

NC1=N[C@@]2(CO1)c1cc(-c3cccnc3F)ccc1Oc1c2cc(N2CC[C@@H](F)C2)nc1F [Example 673, (5S)-1-fluoro-7-(2-fluoro-3-pyridinyl)-3-((3R)-3-fluoro-1-pyrrolidinyl)spiro[chromeno[2,3-c]pyridine-5,4′-[1,3]oxazol]-2′-amine]
IC50 [1, 3]: 0.0003 µM | IC50 [2, 4]: 3 nM

CC(C)(C)C#Cc1cc2c(nc1F)Oc1ccc(-c3cccnc3F)cc1[C@]21COC(N)=N1 [Example 674, (5R)-3-(3,3-dimethyl-1-butyn-1-yl)-2-fluoro-7-(2-fluoro-3-pyridinyl)spiro[chromeno[2,3-b]pyridine-5,4′-[1,3]oxazol]-2′-amine]
IC50 [1, 3]: 0.239 µM | IC50 [2, 4]: 2810 nM

NC1=N[C@@]2(CO1)c1cc(-c3ccnc(F)c3)ccc1Oc1cnc(Cl)cc12 [Example 675, (5S)-3-chloro-7-(2-fluoro-4-pyridinyl)spiro[chromeno[2,3-c]pyridine-5,4′-[1,3]oxazol]-2′-amine]
IC50 [1, 3]: 2.63 µM | IC50 [2, 4]: 415 nM

NC1=N[C@]2(CO1)c1ccncc1Oc1ccc(-c3c(F)ccnc3F)cc12 [Example 677, (5S)-7-(2,4-difluoro-3-pyridinyl)spiro[chromeno[2,3-c]pyridine-5,4′-[1,3]oxazol]-2′-amine]
IC50 [1, 3]: 0.0516 µM | IC50 [2, 4]: 580 nM

CC1(C)C=C(c2cc3c(cn2)Oc2ccc(-c4cncnc4)cc2[C@@]32COC(N)=N2)CCO1 [Example 678, (5S)-3-(6,6-dimethyl-3,6-dihydro-2H-pyran-4-yl)-7-(5-pyrimidinyl)spiro[chromeno[2,3-c]pyridine-5,4′-[1,3]oxazol]-2′-amine]
IC50 ([1]; BACE 1 FRET assay (uM)): 0.0009 µM | IC50 ([2]; average IC50, HEK cells): 8 nM

CC1(C)CC(c2cc3c(cn2)Oc2ccc(-c4cncnc4)cc2[C@@]32COC(N)=N2)=CCO1 [Example 679, (5S)-3-(2,2-dimethyl-3,6-dihydro-2H-pyran-4-yl)-7-(5-pyrimidinyl)spiro[chromeno[2,3-c]pyridine-5,4′-[1,3]oxazol]-2′-amine]
IC50 [1, 3]: 0.0016 µM | IC50 [2, 4]: 14 nM

COc1ccnc(F)c1-c1ccc2c(c1)[C@@]1(COC(N)=N1)c1cc(Cl)ncc1O2 [Example 680, (5S)-3-chloro-7-(2-fluoro-4-methoxy-3-pyridinyl)spiro[chromeno[2,3-c]pyridine-5,4′-[1,3]oxazol]-2′-amine]
IC50 [1, 3]: 0.0153 µM | IC50 [2, 4]: 806 nM

COc1ccnc(F)c1-c1ccc2c(c1)[C@@]1(COC(N)=N1)c1cc(-c3ccnc(F)c3)ncc1O2 [Example 681, (5S)-7-(2-fluoro-4-methoxy-3-pyridinyl)-3-(2-fluoro-4-pyridinyl)spiro[chromeno[2,3-c]pyridine-5,4′-[1,3]oxazol]-2′-amine]
IC50 [1, 3]: 0.0005 µM | IC50 [2, 4]: 12 nM

NC1=NC2(CS1)c1cc(-c3cccnc3F)ccc1Oc1c2cc(-c2cccnc2F)nc1F (stereo not drawn) [Example 682, 1-fluoro-3,7-bis(2-fluoro-3-pyridinyl)spiro[chromeno[2,3-c]pyridine-5,4′-[1,3]thiazol]-2′-amine]
IC50 [1, 3]: 0.0009 µM | IC50 [2, 4]: 74 nM

CC1(C#Cc2cc3c(cn2)Oc2ccc(-c4cccnc4F)cc2C32CSC(N)=N2)COC1 (stereo not drawn) [Example 683, 7-(2-fluoro-3-pyridinyl)-3-((3-methyl-3-oxetanyl)ethynyl)spiro[chromeno[2,3-c]pyridine-5,4′-[1,3]thiazol]-2′-amine]
IC50 [1, 3]: 0.0012 µM | IC50 [2, 4]: 19 nM

NC1=N[C@@]2(CO1)c1cc(-c3cccnc3)ccc1Oc1c(F)cc(-n3cccn3)cc12 [Example 684, (4S)-4′-fluoro-2′-(1H-pyrazol-1-yl)-7′-(3-pyridyl)spiro[1,3-oxazole-4,9′-xanthen]-2-amine]
IC50 [1, 3]: 0.0038 µM | IC50 [2, 4]: 34 nM

CC(C)(C)C#Cc1cc2c(nc1F)Oc1ccc(-c3cccnc3F)cc1[C@@]21COC(N)=N1 [Example 685, (5S)-3-(3,3-dimethyl-1-butyn-1-yl)-2-fluoro-7-(2-fluoro-3-pyridinyl)spiro[chromeno[2,3-b]pyridine-5,4′-[1,3]oxazol]-2′-amine]
IC50 [1, 3]: 0.0004 µM | IC50 [2, 4]: 11 nM

NC1=N[C@@]2(CO1)c1cc(-c3cccnc3F)ccc1Oc1c(F)cc(-c3ccnnc3)cc12 [Example 686, (4S)-4′-fluoro-7′-(2-fluoro-3-pyridinyl)-2′-(4-pyridazinyl)spiro[1,3-oxazole-4,9′-xanthen]-2-amine]
IC50 [1, 3]: 0.0008 µM | IC50 [2, 4]: 12 nM

COc1cncc(-c2ccc3c(c2)[C@@]2(COC(N)=N2)c2cc(-c4ncccn4)ncc2O3)c1 [Example 687, (5S)-7-(5-methoxy-3-pyridinyl)-3-(2-pyrimidinyl)spiro[chromeno[2,3-c]pyridine-5,4′-[1,3]oxazol]-2′-amine]
IC50 [1, 3]: 0.0804 µM | IC50 [2, 4]: 853 nM

NC1=N[C@@]2(CO1)c1cc(O)ccc1Oc1ncc(Br)cc12 [Example 689, (5S)-2′-amino-3-bromospiro[chromeno[2,3-b]pyridine-5,4′-[1,3]oxazol]-7-ol]
IC50 [1, 3]: 4.07 µM | IC50 [2, 4]: 10000 nM

CC1(C#Cc2cnc3c(c2)[C@]2(COC(N)=N2)c2cc(O)ccc2O3)COC1 [Example 690, (5S)-2′-amino-3-((3-methyl-3-oxetanyl)ethynyl)spiro[chromeno[2,3-b]pyridine-5,4′-[1,3]oxazol]-7-ol]
IC50 [1, 3]: 0.346 µM | IC50 [2, 4]: 2150 nM

NC1=N[C@@]2(CO1)c1cc(-c3cccnc3F)ccc1Oc1c(F)cc(-n3cccn3)cc12 [Example 691, (4S)-4′-fluoro-7′-(2-fluoro-3-pyridinyl)-2′-(1H-pyrazol-1-yl)spiro[1,3-oxazole-4,9′-xanthen]-2-amine]
IC50 [1, 3]: 0.002 µM | IC50 [2, 4]: 63 nM

NC1=N[C@@]2(CO1)c1cc(-c3cncnc3)ccc1Oc1c(F)cc(-n3cccn3)cc12 [Example 692, (4S)-4′-fluoro-2′-(1H-pyrazol-1-yl)-7′-(5-pyrimidinyl)spiro[1,3-oxazole-4,9′-xanthen]-2-amine]
IC50 [1, 3]: 0.0037 µM | IC50 [2, 4]: 74 nM

CN(C)c1cc2c(cn1)Oc1ccc(-c3cccnc3F)cc1C21CSC(N)=N1 (stereo not drawn) [Example 693, 7-(2-fluoro-3-pyridinyl)-N~3~,N~3~-dimethylspiro[chromeno[2,3-c]pyridine-5,4′-[1,3]thiazole]-2′,3-diamine]
IC50 [1, 3]: 0.0105 µM | IC50 [2, 4]: 237 nM

NC1=N[C@@]2(CO1)c1cc(-c3cccnc3F)ccc1Oc1c2cc(N2CCC(F)(F)CC2)nc1F [Example 698, (5S)-3-(4,4-difluoro-1-piperidinyl)-1-fluoro-7-(2-fluoro-3-pyridinyl)spiro[chromeno[2,3-c]pyridine-5,4′-[1,3]oxazol]-2′-amine]
IC50 [1, 3]: 0.0003 µM | IC50 [2, 4]: 6 nM

COc1ccc2c(c1)[C@@]1(COC(N)=N1)c1cc(C3(O)COC3)cc(F)c1O2 [Example 708, (S)-3-(2-amino-5′-fluoro-2′-methoxy-5H-spiro[oxazole-4,9′-xanthene]-7′-yl)oxetan-3-ol]
IC50 [1, 3]: 13.3 µM | IC50 [2, 4]: ≥ 10000 nM

COc1ccc2c(c1)[C@@]1(COC(N)=N1)c1cc(C3(F)COC3)cc(F)c1O2 [Example 709, (S)-4′-fluoro-2′-(3-fluorooxetan-3-yl)-7′-methoxy-5H-spiro[oxazole-4,9′-xanthen]-2-amine]
IC50 [1, 3]: 4.56 µM | IC50 [2, 4]: ≥ 10000 nM

COc1nc(Cl)cc2c1Oc1ccc(Br)cc1[C@@]21COC(N)=N1 [Example 710, (S)-7-bromo-3-chloro-1-methoxy-5′H-spiro[chromeno[2,3-c]pyridine-5,4′-oxazol]-2′-amine]
IC50 [1, 3]: 6.89 µM | IC50 [2, 5]: ≥ 10000 nM

NC1=N[C@@]2(CO1)c1cc(-c3cccnc3O)ccc1Oc1cnc(-c3ccnc(F)c3)cc12 [Example 712, (S)-3-(2′-amino-3-(2-fluoropyridin-4-yl)-5′H-spiro[chromeno[2,3-c]pyridine-5,4′-oxazole]-7-yl)pyridin-2-ol]
IC50 [1, 3]: 0.0697 µM | IC50 [2, 5]: 1090 nM

NC1=N[C@@]2(CO1)c1cc(-c3cccnc3F)ccc1Oc1nc(F)c(N3CCOCC3)cc12 [Example 714, (S)-2-fluoro-7-(2-fluoropyridin-3-yl)-3-morpholino-5′H-spiro[chromeno[2,3-b]pyridine-5,4′-oxazol]-2′-amine]
IC50 [1, 3]: 0.0036 µM | IC50 [2, 4]: 55 nM

CC(C)(C)OCc1cnc2c(c1)[C@]1(COC(N)=N1)c1cc(-c3cccnc3F)c(F)cc1O2 [Example 716, (S)-3-(tert-butoxymethyl)-8-fluoro-7-(2-fluoropyridin-3-yl)-5′H-spiro[chromeno[2,3-b]pyridine-5,4′-oxazol]-2′-amine]
IC50 [1, 3]: 0.0065 µM | IC50 [2, 4]: 132 nM

CC(C)(F)C#Cc1cnc2c(c1)[C@]1(COC(N)=N1)c1cc(-c3cncnc3)c(F)cc1O2 [Example 717, (S)-8-fluoro-3-(3-fluoro-3-methylbut-1-ynyl)-7-(pyrimidin-5-yl)-5′H-spiro[chromeno[2,3-b]pyridine-5,4′-oxazol]-2′-amine]
IC50 [1, 3]: 0.0038 µM | IC50 [2, 4]: 212 nM

COCC1SC(N)=NC12c1cc(-c3cccnc3F)ccc1Oc1c(F)cc(OC)cc12 [Example 720, (4R)-4′-fluoro-7′-(2-fluoro-3-pyridinyl)-2′-methoxy-5-(methoxymethyl)spiro[1,3-thiazole-4,9′-xanthen]-2-amine, (4S)-4′-fluoro-7′-(2-fluoro-3-pyridinyl)-2′-methoxy-5-(methoxymethyl)spiro[1,3-thiazole-4,9′-xanthen]-2-amine]
IC50 [1, 3]: 0.067 µM | IC50 [2, 5]: 1370 nM

COCC1SC(N)=N[C@]12c1cc(-c3cccnc3F)ccc1Oc1cnc(-c3ccnc(F)c3)cc12 (stereo partly drawn) [Example 722, (5S)-7-(2-fluoro-3-pyridinyl)-3-(2-fluoro-4-pyridinyl)-5′-(methoxymethyl)spiro[chromeno[2,3-c]pyridine-5,4′-[1,3]thiazol]-2′-amine]
IC50 [1, 3]: 0.335 µM | IC50 [2, 4]: 5930 nM

CC#Cc1cncc(-c2ccc3c(c2)[C@@]2(COC(N)=N2)c2cc(OC)cc(F)c2O3)n1 [Example 723, (4S)-4′-fluoro-2′-methoxy-7′-(6-(1-propyn-1-yl)-2-pyrazinyl)spiro[1,3-oxazole-4,9′-xanthen]-2-amine]
IC50 [1, 3]: 0.0926 µM | IC50 [2, 5]: 958 nM

— US8883782B2, “Spiro-tetracyclic ring compounds as beta-secretase modulators and methods of use” (Amgen Inc., priority 2010, dated 2014)
